Test results reported in US5798381A, “Biologically active bistramides, process for their production and their applications in therapy” (Institut Francais de Recherche Scientifique pour le …, priority 1993, dated 1998).
≈ marks a conversion by molar mass, not a printed value.

Tests used:
NSCLC.N6-L16 = experiment: Cytotoxicity, 50% inhibition of cell growth, NSCLC-N6; assay type: cell-based; conditions: Homo sapiens; NSCLC.N6-L16; read-out: IC50 (50% inhibition of cell growth)
Procedure: (§1) The cytoxicity results are recorded hereafter as the IC50 in μg/ml (concentration corresponding to a 50% inhibition of cell growth) on 6 tumoural lines namely KB, P388, P388/dox (resistant to doxorubicin), B16 and H429 and NSCLC-N6, which are human cells of non-small cell bronchopulmonary carcinoma type.
(§2) The determinations were carried out according to the protocol given in Cancer Chemother. Pharmacol. (1991) 28:283-292 by Roussakis et al.

[1] = test system: Plasmodium vinckei petteri; experiment: PETERS test (4-day anti-malarial test in mice); assay type: in vivo, Plasmodium vinckei petteri in SWISS female white mice; conditions: 15 mg/kg/day, 4 days, sub-cutaneous; for percentage inhibition of parasitemia: D4
Procedure: The animals used are SWISS (IFFA CREDO) female white mice weighing approximately 30 grams. Five mice are distributed per batch.
The species Plasmodium vinckei petteri used comes from the strain 279 BY (see article by Cambie G et al. in CR.Acad.Sci.PARIS 310, series III, 183-188). This plasmodia carries out a schizogonic cycle in 24 hours in a synchronous fashion. Using the freezing-thawing technique for infected blood, only the merozoite stage resists, the other forms being destroyed.
Observation of blood parasites takes place on stained smears carried out by taking a drop of blood from the tail. The smears are then stained with May-Grumwald-Giesma. Calculation of the parasitemia (number of parasites per 100 red blood corpuscles) is carried out on smears.
In these trials bistramide D is used in sterile physiological water containing 5% DMSO.
The product is injected by sub-cutaneous route in the thigh.
In order to verify the activity of the compound studied, the PETERS test is used which constitutes the reference for the screening of molecules with anti-malarial activity. (PETERS W. 1980. Chemotherapy and Drug resistance in Malaria, vol II, Academic Press).
After treatment for 4 days, the percentage of red blood corpuscles parasitized is compared on thin smears between the control batch and the treated batch. In this way a percentage inhibition is established. […]
a) injection of 10^7 of parasitized red blood corpuscles by I.P. route (D0) b) injection of Bistramide D at 15 mg/kg/day, for 4 days by sub-cutaneous route (D0, D1. D2, D3) c) checking the parasitemia on smears on D4

P388 (p388s) = experiment: Cytotoxicity, 50% inhibition of cell growth, P388; assay type: cell-based; conditions: Mus musculus, P388/S; p388s; read-out: IC50 (50% inhibition of cell growth)
Procedure: as §1, §2

L.(L) donovani = experiment: Anti-leishmanial activity in vitro; assay type: cell-based; conditions: 500 μg/ml
[2] = test system: Plasmodium vinckei petteri; experiment: Flow cytometry study of parasitized murine red blood corpuscles; conditions: G1 phase, maturation stage
From the text: The consequence of this is to halt the proliferation at the middle and old trophozoite stage.

**Q.** Which results are given for `C/C=C/C(O)CC1CCC(C)C(CC(=O)NCC(O)C(C)C(=O)NCCCC2OC3(CCCC(CCC(C)/C=C(\C)C(C)O)O3)CCC2C)O1` (stereo not shown) [Bistramide D]?
**A.** IC50 (NSCLC.N6-L16): 3.43 µg/mL (≈ 4.85 µM); percentage inhibition of parasitemia ([1]; trial A): 85%; parasitemia, treated batch on D4 ([1]; trial A, controls 4%): 0.64%; percentage inhibition of parasitemia ([1]; trial B): 87%; parasitemia, treated batch on D4 ([1]; trial B, controls 4%): 0.50%; percentage inhibition of parasitemia ([1]; trial C): 81%; parasitemia, treated batch on D4 ([1]; trial C, controls 1.2%): 0.23%; IC50 (P388 (p388s)): 0.36 µg/mL (≈ 0.509 µM); anti-leishmanial activity (L.(L) donovani): has an anti-leishmanial activity in vitro; blocking of the parasite / of parasitic proliferation [2]: partial blocking of the parasite at its maturation stage
